Experimental data: PubChem BioAssay AID248 (DTP/NCI, 2004)
Inconclusive results and toxic doses are left out. Cut-off read from the data, not from the text of the source: active = T/C of 150% or more; inactive = T/C below 125%.

Test system: L1210 leukemia ip in BDF1 mice, survival T/C
Experiment: NCI In Vivo Anticancer Drug Screen. Data for tumor model L1210 Leukemia (intraperitoneal) in B6D2F1 (BDF1) mice
Conditions: endpoint: mean survival time, higher = longer survival
How it was run: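 Ratio derived from survival: compound-dosed mice over vehicle-dosed mice, all bearing a transplantable tumor.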

[1] = dose: 100.0 mg/kg/injection, schedule: Q04DX003 (ip), vehicle: saline with Tween-80
[2] = dose: 200.0 mg/kg/injection, schedule: Q04DX003 (ip), vehicle: saline with Tween-80
[3] = dose: 400.0 mg/kg/injection, schedule: Q04DX003 (ip), vehicle: saline with Tween-80
[4] = dose: 200.0 mg/kg/injection, schedule: Q04DX003 (ip), vehicle: saline
[5] = dose: 50.0 mg/kg/injection, schedule: Q01DX001 (ip), vehicle: carboxymethylcellulose (CMC)
[6] = dose: 100.0 mg/kg/injection, schedule: Q01DX001 (ip), vehicle: carboxymethylcellulose (CMC)
[7] = dose: 200.0 mg/kg/injection, schedule: Q01DX001 (ip), vehicle: carboxymethylcellulose (CMC)
[8] = dose: 400.0 mg/kg/injection, schedule: Q01DX001 (ip), vehicle: carboxymethylcellulose (CMC)
[9] = dose: 100.0 mg/kg/injection, schedule: Q01DX009 (ip), vehicle: Klucel (hydroxypropylcellulose) (HPC)
[10] = dose: 200.0 mg/kg/injection, schedule: Q01DX009 (ip), vehicle: Klucel (hydroxypropylcellulose) (HPC)
[11] = dose: 400.0 mg/kg/injection, schedule: Q01DX009 (ip), vehicle: Klucel (hydroxypropylcellulose) (HPC)
[12] = dose: 100.0 mg/kg/injection, schedule: Q04DX002 (ip), vehicle: Klucel (hydroxypropylcellulose) (HPC)
[13] = dose: 200.0 mg/kg/injection, schedule: Q04DX002 (ip), vehicle: Klucel (hydroxypropylcellulose) (HPC)
[14] = dose: 100.0 mg/kg/injection, schedule: Q04DX003 (ip), vehicle: Klucel (hydroxypropylcellulose) (HPC)
[15] = dose: 200.0 mg/kg/injection, schedule: Q04DX003 (ip), vehicle: Klucel (hydroxypropylcellulose) (HPC)
[16] = dose: 100.0 mg/kg/injection, schedule: Q04DX003 (ip), vehicle: saline
[17] = dose: 100.0 mg/kg/injection, schedule: Q01DX009 (ip), vehicle: saline with Tween-80
[18] = dose: 200.0 mg/kg/injection, schedule: Q01DX009 (ip), vehicle: saline with Tween-80
[19] = dose: 400.0 mg/kg/injection, schedule: Q01DX009 (ip), vehicle: saline with Tween-80
[20] = dose: 100.0 mg/kg/injection, schedule: Q01DX009 (ip), vehicle: saline
[21] = dose: 200.0 mg/kg/injection, schedule: Q01DX009 (ip), vehicle: saline
[22] = dose: 400.0 mg/kg/injection, schedule: Q01DX009 (ip), vehicle: saline
[23] = dose: 400.0 mg/kg/injection, schedule: Q04DX003 (ip), vehicle: Klucel (hydroxypropylcellulose) (HPC)

Measured: T/C

COC(=O)NS(=O)(=O)/C=C/N1CCCC1=O
inactive: dose: 75.0 mg/kg/injection, schedule: Q04DX003 (ip), vehicle: Klucel (hydroxypropylcellulose) (HPC) 96 % of control | dose: 150.0 mg/kg/injection, schedule: Q04DX003 (ip), vehicle: Klucel (hydroxypropylcellulose) (HPC) 100 % of control | dose: 300.0 mg/kg/injection, schedule: Q04DX003 (ip), vehicle: Klucel (hydroxypropylcellulose) (HPC) 100 % of control

C=CCc1cnc(N)[nH]c1=O
inactive: [1] 103 % of control | [2] 97 % of control | [3] 100 % of control

O=C(CCCN1CCC2(CC1)C(=O)NCN2c1ccccc1)c1ccc(F)cc1
inactive: dose: 0.78 mg/kg/injection, schedule: Q01DX009 (ip), vehicle: saline 96 % of control | dose: 0.78 mg/kg/injection, schedule: Q04DX003 (ip), vehicle: saline 98 % of control | dose: 1.56 mg/kg/injection, schedule: Q01DX009 (ip), vehicle: saline 105 % of control | dose: 1.56 mg/kg/injection, schedule: Q04DX003 (ip), vehicle: saline 96 % of control | dose: 3.12 mg/kg/injection, schedule: Q01DX009 (ip), vehicle: saline 107 % of control | dose: 3.12 mg/kg/injection, schedule: Q04DX003 (ip), vehicle: saline 105 % of control | dose: 6.25 mg/kg/injection, schedule: Q01DX009 (ip), vehicle: saline 97 % of control | dose: 6.25 mg/kg/injection, schedule: Q04DX003 (ip), vehicle: saline 106 % of control | dose: 12.5 mg/kg/injection, schedule: Q01DX009 (ip), vehicle: saline 92 % of control | dose: 12.5 mg/kg/injection, schedule: Q04DX003 (ip), vehicle: saline 124 % of control | dose: 50.0 mg/kg/injection, schedule: Q04DX003 (ip), vehicle: saline 120 % of control | [4] 93 % of control

CN(C)CCCNc1c2ccccc2nc2cccc([N+](=O)[O-])c12
inactive: dose: 0.2 mg/kg/injection, schedule: Q04DX003 (ip), vehicle: saline 100 % of control | dose: 0.3 mg/kg/injection, schedule: Q04DX003 (ip), vehicle: saline 94 % of control | dose: 0.5 mg/kg/injection, schedule: Q04DX003 (ip), vehicle: saline 108 % of control

Cc1c(C(=O)c2ccccc2)c2ccccc2n1C
inactive: [5] 96 % of control | [6] 91 % of control | [7] 93 % of control | [8] 93 % of control

O=C(Nc1ccc(F)c([N+](=O)[O-])c1)N(Cc1ccccc1)c1ccccc1
inactive: [9] 101 % of control | [10] 104 % of control | [11] 98 % of control

CC(C)=CCC1(CC=C(C)C)C(=O)N(c2ccccc2)N(c2ccccc2)C1=O
inactive: dose: 50.0 mg/kg/injection, schedule: Q04DX002 (ip), vehicle: Klucel (hydroxypropylcellulose) (HPC) 93 % of control | [9] 93 % of control | [12] 101 % of control | [10] 98 % of control | [13] 97 % of control | [11] 90 % of control

CC1=CC(C)=NC2NNC(=O)C12 (stereo unspecified)
inactive: dose: 100.0 mg/kg/injection, schedule: Q04DX002 (ip), vehicle: saline with Tween-80 100 % of control | dose: 200.0 mg/kg/injection, schedule: Q04DX002 (ip), vehicle: saline with Tween-80 103 % of control | dose: 400.0 mg/kg/injection, schedule: Q04DX002 (ip), vehicle: saline with Tween-80 96 % of control

CC12CCC(C1)C(C)(C)C2C(N)=O (stereo unspecified)
inactive: [14] 93 % of control | [15] 93 % of control

CCCCCCCCCCCCNC(=O)C[n+]1ccc(C(N)=O)cc1
inactive: [16] 94 % of control

Nc1c(N)c2ccccc2c2ccccc12
inactive: [5] 115 % of control | [6] 110 % of control | [7] 117 % of control | [8] 110 % of control

CC(=O)[C@@]1(O)CC[C@H]2[C@@H]3CCC4=CC(=O)CC[C@]4(C)[C@@]3(F)[C@@H](O)C[C@@]21C
inactive: dose: 100.0 mg/kg/injection, schedule: Q01DX Z (sc), vehicle: steriod suspending solution 98 % of control | dose: 200.0 mg/kg/injection, schedule: Q01DX Z (sc), vehicle: steriod suspending solution 98 % of control | dose: 400.0 mg/kg/injection, schedule: Q01DX Z (sc), vehicle: steriod suspending solution 100 % of control

CCCCSP(Oc1ccccc1)SCCCC
inactive: [9] 89 % of control

C=NNC(=O)c1ccncc1
inactive: [1] 89 % of control | [2] 94 % of control | [3] 88 % of control

CCC(O)CNC1CCCCC1 (stereo unspecified)
inactive: dose: 75.0 mg/kg/injection, schedule: Q01DX001 (ip), vehicle: saline 98 % of control | dose: 150.0 mg/kg/injection, schedule: Q01DX001 (ip), vehicle: saline 98 % of control

CC(C)(C)[CH2][Sn]([Br])([Br])[CH2]C(C)(C)C
inactive: dose: 9.38 mg/kg/injection, schedule: Q01DX001 (ip), vehicle: other 98 % of control

Clc1cc(NCc2ccco2)ncn1
inactive: dose: 50.0 mg/kg/injection, schedule: Q01DX001 (ip), vehicle: Klucel (hydroxypropylcellulose) (HPC) 103 % of control | dose: 100.0 mg/kg/injection, schedule: Q01DX001 (ip), vehicle: Klucel (hydroxypropylcellulose) (HPC) 97 % of control | dose: 200.0 mg/kg/injection, schedule: Q01DX001 (ip), vehicle: Klucel (hydroxypropylcellulose) (HPC) 97 % of control

O[C@@H]1CCCC[C@@H]1n1cnc2c(=S)nc[nH]c21
inactive: [17] 97 % of control | [1] 98 % of control | [18] 93 % of control | [2] 93 % of control | [19] 92 % of control | [3] 91 % of control

CCOCC(OC)OC
inactive: [20] 95 % of control | [16] 93 % of control | [21] 97 % of control | [4] 98 % of control | [22] 97 % of control | dose: 400.0 mg/kg/injection, schedule: Q04DX003 (ip), vehicle: saline 107 % of control

CCC(=S)Nc1ccc(Cl)cc1
inactive: dose: 25.0 mg/kg/injection, schedule: Q01DX009 (ip), vehicle: saline with Tween-80 103 % of control | dose: 50.0 mg/kg/injection, schedule: Q01DX009 (ip), vehicle: saline with Tween-80 105 % of control | [17] 112 % of control | [1] 91 % of control | [2] 110 % of control

COc1ccccc1CN1CCCN(Cc2ccccc2OC)C1c1cccnc1
inactive: [5] 112 % of control | [6] 108 % of control | [7] 106 % of control | [8] 108 % of control

O=C(NC(=O)c1ccc(Cl)c(Cl)c1)Nc1ccccc1C(F)(F)F
inactive: [14] 102 % of control | [15] 98 % of control | [23] 98 % of control

CC(CCC(C)C(=O)O)C(=O)O (stereo unspecified)
inactive: [17] 103 % of control | [18] 102 % of control | [19] 103 % of control

O=C1CSCC(=O)N1
inactive: [20] 102 % of control | [21] 97 % of control | [22] 103 % of control

Nc1cccc(CCCCOc2ccccc2)c1
inactive: [17] 97 % of control | [1] 97 % of control | [18] 98 % of control | [2] 103 % of control | [3] 105 % of control

CC1C(c2ccccc2)OCN1CN1C(=O)C=CC1=O (stereo unspecified) (tested in a mixture with another compound)
inactive: [1] 90 % of control

CCOC(=O)Cc1ccc2c(c1)sc(=S)n2C
inactive: [14] 96 % of control | [15] 87 % of control | [23] 92 % of control

Cc1ccc(NC(=O)c2cccc(C(=O)Nc3ccc(C)c(Cl)c3)c2)cc1Cl
inactive: [9] 91 % of control | [14] 95 % of control | [10] 97 % of control | [15] 96 % of control | [11] 92 % of control | [23] 106 % of control

O=C(O)/C=C/C(=O)Nc1ccc([N+](=O)[O-])cc1
inactive: [17] 101 % of control | [1] 107 % of control | [18] 102 % of control | [2] 101 % of control | [19] 95 % of control | [3] 107 % of control

CC(c1ccccc1)n1cncc1C(=O)N1CCOCC1 (stereo unspecified)
inactive: [12] 104 % of control | [13] 97 % of control | dose: 400.0 mg/kg/injection, schedule: Q04DX002 (ip), vehicle: Klucel (hydroxypropylcellulose) (HPC) 123 % of control
